Holding throughout (format): functional, H37Rv
Common to all, as to details: time 7-14 day

Assay [1] concerns Mycobacterium tuberculosis.
Assay [2] deals with Mycobacterium tuberculosis. This is another data set of the same source.
In assay [3] the test system is Mycobacterium tuberculosis. This is another data set of the same source.
For assay [4], the system named is Mycobacterium tuberculosis. This is another data set of the same source.

Our source for the MIC values is ChEMBL document CHEMBL4706648, “Antitubercular 2-Pyrazolylpyrimidinones: Structure-Activity Relationship and Mode-of-Action Studies” (J Med Chem, 2021).

A word on the MIC: it is the least concentration at which growth counts as inhibited.

In brackets after ≈: the same amount, converted by molar mass.

For `Cc1cc(C)n(-c2nc(O)cc(-c3ccccc3)n2)n1`, the MIC was 16 µM (≈ 4.26 µg/mL) in assay [1], 18 µM (≈ 4.79 µg/mL) in assay [2], 1.9 µM (≈ 0.506 µg/mL) in assay [3] and 40 µM (≈ 10.7 µg/mL) in assay [4].

Consider `Cc1cc(Nc2ccc(F)cc2)n(-c2nc(C(F)(F)F)cc(=O)[nH]2)n1`, for which the minimal inhibitory concentration (MIC) in assay [3] is 1 µM (≈ 0.353 µg/mL).

On to `CCNc1cc(C)nn1-c1nc(-c2cccnc2)cc(=O)[nH]1`, for which the values for the MIC in assay [2] and in assay [3] were 41 µM (≈ 12.1 µg/mL) and 5.5 µM (≈ 1.63 µg/mL), respectively.

In the case of `Cc1cc(C)n(-c2nc(C(F)(F)F)cc(=O)[nH]2)n1`, the results for the MIC in assay [2] and in assay [3] were 170 µM (≈ 43.9 µg/mL) and 17 µM (≈ 4.39 µg/mL), respectively.

In the case of `CC(=O)Nc1cc(C)nn1-c1nc(-c2ccccc2)cc(=O)[nH]1`, in assay [3], the MIC amounted to 24 µM (≈ 7.42 µg/mL). This lies in the double-digit micromolar range.

Turning to `COCCNc1cc(C)nn1-c1nc(C(F)(F)F)cc(=O)[nH]1`, the results for the MIC in assay [2] and in assay [3] were 39 µM (≈ 12.4 µg/mL) and 1.9 µM (≈ 0.603 µg/mL), respectively.

As for `Cc1ccc(Nc2cc(C)nn2-c2nc(C)cc(O)n2)cc1`, the MIC in assay [1] came to 45 µM (≈ 13.3 µg/mL); in assay [2] it was 55 µM (≈ 16.2 µg/mL); in assay [3], 5.4 µM (≈ 1.59 µg/mL); in assay [4] it was 110 µM (≈ 32.5 µg/mL).
